{"source": "PubChem BioAssay AID1963825", "about": "(Molecular Pharmacology Branch, DTP, NCI, 2024);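 also: luminescence signal used as a surrogate for viable cells; spheroids exposed to drugs for seven days before readout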", "assay": "Anticancer human tumor 997537-175-T-J1-PDC patient-derived colon adenocarcinoma cell line growth inhibition [POLQ]", "conditions": "997537-175-T-J1-PDC complex spheroid viability, combination with POLQ inhibitors; for IC50: curve of first compound; for viability, T/C: stronger effect = lower value", "method_in_brief": "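Growth inhibition in 3D: complex spheroids (tumor PDC, HUVEC, MSC) treated with POLQ inhibitor combinations; where Cmax unknown, highest tested concentration 10 microM, except SN-38 at 1 microM.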"}
{"smiles": "CC(=O)O[C@H]1C(=O)[C@@]2(C)[C@H]([C@H](OC(=O)c3ccccc3)[C@]3(O)C[C@H](OC(=O)[C@H](O)[C@@H](NC(=O)c4ccccc4)c4ccccc4)C(C)=C1C3(C)C)[C@]1(OC(C)=O)CO[C@@H]1C[C@@H]2O", "note": "+ Cc1cccc(N(C)C(=O)C2C(O)CCN2c2nc(C)cc(C(F)(F)F)c2C#N)c1", "values": [{"measurement": "IC50", "setting": "second compound 0.0316 µM", "result": "< 9.49", "unit": "nM"}, {"measurement": "IC50", "setting": "second compound 0.1 µM", "result": "< 9.49", "unit": "nM"}, {"measurement": "IC50", "setting": "second compound 0.316 µM", "result": 32.2, "unit": "nM"}, {"measurement": "IC50", "setting": "second compound 1 µM", "result": "< 9.49", "unit": "nM"}, {"measurement": "IC50", "setting": "second compound 3.16 µM", "result": 20.9, "unit": "nM"}, {"measurement": "IC50", "setting": "second compound 10 µM", "result": "< 9.49", "unit": "nM"}, {"measurement": "viability, T/C", "setting": "second compound 0.0316 µM, first compound 0.00949 µM", "result": 56, "unit": "%"}, {"measurement": "viability, T/C", "setting": "second compound 0.0316 µM, first compound 0.03 µM", "result": 32.5, "unit": "%"}, {"measurement": "viability, T/C", "setting": "second compound 0.0316 µM, first compound 0.0949 µM", "result": 16.2, "unit": "%"}, {"measurement": "viability, T/C", "setting": "second compound 0.0316 µM, first compound 0.3 µM", "result": 20.3, "unit": "%"}, {"measurement": "viability, T/C", "setting": "second compound 0.0316 µM, first compound 0.949 µM", "result": 35.2, "unit": "%"}, {"measurement": "viability, T/C", "setting": "second compound 0.0316 µM, first compound 3 µM", "result": 41.5, "unit": "%"}, {"measurement": "viability, T/C", "setting": "second compound 0.1 µM, first compound 0.00949 µM", "result": 53.7, "unit": "%"}, {"measurement": "viability, T/C", "setting": "second compound 0.1 µM, first compound 0.03 µM", "result": 39, "unit": "%"}, {"measurement": "viability, T/C", "setting": "second compound 0.1 µM, first compound 0.0949 µM", "result": 45.4, "unit": "%"}, {"measurement": "viability, T/C", "setting": "second compound 0.1 µM, first compound 0.3 µM", "result": 32.4, "unit": "%"}, {"measurement": "viability, T/C", "setting": "second compound 0.1 µM, first compound 0.949 µM", "result": 41.5, "unit": "%"}, {"measurement": "viability, T/C", "setting": "second compound 0.1 µM, first compound 3 µM", "result": 35.5, "unit": "%"}, {"measurement": "viability, T/C", "setting": "second compound 0.316 µM, first compound 0.00949 µM", "result": 54.1, "unit": "%"}, {"measurement": "viability, T/C", "setting": "second compound 0.316 µM, first compound 0.03 µM", "result": 51.6, "unit": "%"}, {"measurement": "viability, T/C", "setting": "second compound 0.316 µM, first compound 0.0949 µM", "result": 30.1, "unit": "%"}, {"measurement": "viability, T/C", "setting": "second compound 0.316 µM, first compound 0.3 µM", "result": 29.8, "unit": "%"}, {"measurement": "viability, T/C", "setting": "second compound 0.316 µM, first compound 0.949 µM", "result": 26.2, "unit": "%"}, {"measurement": "viability, T/C", "setting": "second compound 0.316 µM, first compound 3 µM", "result": 20.3, "unit": "%"}, {"measurement": "viability, T/C", "setting": "second compound 1 µM, first compound 0.00949 µM", "result": 41, "unit": "%"}, {"measurement": "viability, T/C", "setting": "second compound 1 µM, first compound 0.03 µM", "result": 32.3, "unit": "%"}, {"measurement": "viability, T/C", "setting": "second compound 1 µM, first compound 0.0949 µM", "result": 28.3, "unit": "%"}, {"measurement": "viability, T/C", "setting": "second compound 1 µM, first compound 0.3 µM", "result": 39.7, "unit": "%"}, {"measurement": "viability, T/C", "setting": "second compound 1 µM, first compound 0.949 µM", "result": 34.3, "unit": "%"}, {"measurement": "viability, T/C", "setting": "second compound 1 µM, first compound 3 µM", "result": 31.9, "unit": "%"}, {"measurement": "viability, T/C", "setting": "second compound 3.16 µM, first compound 0.00949 µM", "result": 79.5, "unit": "%"}, {"measurement": "viability, T/C", "setting": "second compound 3.16 µM, first compound 0.03 µM", "result": 38.5, "unit": "%"}, {"measurement": "viability, T/C", "setting": "second compound 3.16 µM, first compound 0.0949 µM", "result": 20.8, "unit": "%"}, {"measurement": "viability, T/C", "setting": "second compound 3.16 µM, first compound 0.3 µM", "result": 40.2, "unit": "%"}, {"measurement": "viability, T/C", "setting": "second compound 3.16 µM, first compound 0.949 µM", "result": 31.5, "unit": "%"}, {"measurement": "viability, T/C", "setting": "second compound 3.16 µM, first compound 3 µM", "result": 34.2, "unit": "%"}, {"measurement": "viability, T/C", "setting": "second compound 10 µM, first compound 0.00949 µM", "result": 48.1, "unit": "%"}, {"measurement": "viability, T/C", "setting": "second compound 10 µM, first compound 0.03 µM", "result": 38.8, "unit": "%"}, {"measurement": "viability, T/C", "setting": "second compound 10 µM, first compound 0.0949 µM", "result": 47.5, "unit": "%"}, {"measurement": "viability, T/C", "setting": "second compound 10 µM, first compound 0.3 µM", "result": 30.6, "unit": "%"}, {"measurement": "viability, T/C", "setting": "second compound 10 µM, first compound 0.949 µM", "result": 26.2, "unit": "%"}, {"measurement": "viability, T/C", "setting": "second compound 10 µM, first compound 3 µM", "result": 53.9, "unit": "%"}]}
